Measurements published in US5364764A, “Fluorescent chloramphenicol derivatives for determination of chloramphenicol acetyltransferase activity” (Molecular Probes, Inc., priority 1992, dated 1994).

Tests used:
[1] = target: T1, purified CAT (chloramphenicol acetyltransferase) (Escherichia coli, UniProt P62577); assay: Procedure for comparing activity of fluorescent substrates (TLC, conversion to acetylated products); type: biochemical; conditions: 0.8 U purified CAT, acetyl CoA, 1M TRIS pH 7.4, 37° C., 1 hour
T1 construct: the pSV2cat reporter type
Method: To a solution of 0.5 mg acetyl CoA in 112 μL of 1M TRIS pH 7.4 was added 7 μL of a solution of 440 μM fluorescent CAT substrate in ethanol. Then 0.8 U of purified CAT in 1 μL of 1 M TRIS (pH 7.4) was added and the solution was incubated at 37° C. for 1 hour. The reaction mixture was extracted with 0.7 mL of ethyl acetate, and the solvent was removed under vacuum. The residue was dissolved in 14 μL of ethyl acetate, spotted on the pre-absorbent area of Whatman LK6 silica-gel TLC plates and developed with 10% methanol in chloroform. A control, run as above but with no enzyme present, was spotted adjacent to each reaction mixture.
Qualitative estimates of substrate activity of each fluorescent derivative were made by examination of the plates for conversion to acetylated products.

[2] = Solubility in aqueous and nonaqueous solvents; type: physicochemical; conditions: compared with the corresponding fluorescein derivative 36
[3] = target: T1, purified CAT (chloramphenicol acetyltransferase); assay: Relative velocity vs chloramphenicol; type: biochemical; conditions: first ten minutes, substrate 33.2 μM, TRIS pH 7.4, 0.4 mg Acetyl CoA, 0.8U purified enzyme
Method: The velocity during the first ten minutes at a substrate concentration of 33.2 μM was determined using Compound 6 and ^14 C chloramphenicol. The reactions were run in 100 μL final volume TRIS pH 7.4 with 0.4 mg of Acetyl CoA and 0.8U of purified enzyme. The concentrations of acetylated products after ten minutes were determined by extraction from the TLC plates and measuring spectrophotometrically, in the case of Compound 6, and by counting radioactivity in the case of ^14 C chloramphenicol. The velocity during the first ten minutes was assumed to be very close to Vmax. The velocity of Compound 6 was 0.66 of the velocity of ^14 C chloramphenicol.

[4] = system: chloramphenicol acetyltransferase (CAT); conditions: reported by Shaw et al., J. Biol. Chem. 242(4):687 (1967); read-out: Km (Michaelis-Menten constant) for chloramphenicol; cited from earlier work

T1 sequence (P62577 whole entry, looked up): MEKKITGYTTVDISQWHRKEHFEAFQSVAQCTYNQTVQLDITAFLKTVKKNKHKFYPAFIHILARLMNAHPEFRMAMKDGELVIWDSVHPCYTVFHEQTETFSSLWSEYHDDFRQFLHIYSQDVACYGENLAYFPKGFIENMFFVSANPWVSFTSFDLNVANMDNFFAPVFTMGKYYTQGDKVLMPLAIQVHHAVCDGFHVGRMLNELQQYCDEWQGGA

Structure (SMILES)	Qualitative estimate of substrate activity (reaction velocity, conversion to acetylated products) [1]	Solubility in ethyl acetate [2]	Velocity relative to the velocity of 14C chloramphenicol [3]	Km [4] [µM]
Nc1ccc([C@@H](O)[C@@H](CO)NC(=O)CCCCCNc2ccc([N+](=O)[O-])c3nonc23)cc1 [Compound 28]	highest reaction velocities	–	–	–
CN(C)c1ccc2c(CC(=O)NCCCC(=O)N[C@H](CO)[C@H](O)c3ccc([N+](=O)[O-])cc3)cc(=O)oc2c1 [Compound 21]	highest reaction velocities	–	–	–
CC(=O)Nc1ccc([C@@H](O)[C@@H](CO)NC(=O)CCCNC(=O)CC2=CC(C)=[N+]3C2=Cc2c(C)cc(C)n2[B-]3(F)F)cc1 [Compound 6]	highest reaction velocities	much more soluble in ethyl acetate	0.66	–
O=C(N[C@H](CO)[C@H](O)c1ccc([N+](=O)[O-])cc1)C(Cl)Cl [chloramphenicol]	–	–	–	~15
CC(=O)Nc1ccc([C@@H](O)[C@@H](CO)NC(=O)CCCNC(=O)Cc2cc(=O)oc3cc(N(C)C)ccc23)cc1 [Compound 23]	highest reaction velocities	–	–	–
